Data: patent publication US20210000838A1, “COMBINATION THERAPY” (MEI Pharma, Inc., priority 2018, published 2021)

How the values were obtained:
Assay type in all cases: cell-based
[1] = test system: panel of 8 DLBCL cell lines; experiment: ATPLite growth inhibition assay across panel of 8 DLBCL cell lines; details: single agent, FIG. 9
OCI-Ly3 cells = experiment: ATPLite growth inhibition assay, OCI-Ly3 cells; details: single agent, FIG. 10
From the text: (§1) Cells were thawed from a liquid nitrogen preserved state. […] Assay plates were accepted if they pass the following quality control standards: relative luciferase values were consistent throughout the entire experiment, Z-factor scores were greater than 0.6, untreated/vehicle controls behaved consistently on the plate. […]

OCI-Ly19 cells = experiment: ATPLite growth inhibition assay, OCI-Ly19 cells; details: single agent, FIG. 10
From the text: as §1

NU-DHL-1 cells = experiment: ATPLite growth inhibition assay, NU-DHL-1 cells; details: single agent, FIG. 10
From the text: as §1

Pfeiffer cells = experiment: ATPLite growth inhibition assay, Pfeiffer cells; details: single agent, FIG. 10
From the text: as §1

DOHH-2 cells = experiment: ATPLite growth inhibition assay, DOHH-2 cells; details: single agent, FIG. 10
From the text: as §1

SU-DHL-10 cells = experiment: ATPLite growth inhibition assay, SU-DHL-10 cells; details: single agent, FIG. 10
From the text: as §1

CN1CCC(c2ccccc2CC(C)(C)Nc2nc(N3CCOCC3)nc(-n3c(C(F)F)nc4ccccc43)n2)CC1 [Compound I, 4-(2-(difluoromethyl)-1H-benzo[d]imidazol-1-yl)-N-(2-methyl-1-(2-(1-methylpiperidin-4-yl)phenyl)propan-2-yl)-6-morpholino-1,3,5-triazin-2-amine]
growth inhibition levels ([1]; all cell lines): > 50% | GI50 ([1]; median across cell line panel, 72 hours): 1730 nM | growth inhibition effect type (OCI-Ly3 cells): cytotoxic effects | growth inhibition effect type (OCI-Ly19 cells): cytotoxic effects | growth inhibition effect type (NU-DHL-1 cells): sub-cytostatic effects | growth inhibition effect type (Pfeiffer cells): sub-cytostatic effects | growth inhibition effect type (DOHH-2 cells): cytotoxic effects | growth inhibition effect type (SU-DHL-10 cells): sub-cytostatic effects
